Results as given in patent US20260306968A1, “METHOD FOR THE SEPARATION OF PHOSPHORUS STEREOISOMERS OF REMDESIVIR USING LIQUID-LIQUID CHROMATOGRAPHY” (ROTACHROM TECHNOLÓGIAI ZRT., priority 2023, published 2026).

How the values were obtained:
[1] = Dissolving ability of the preferred solvent systems for the remdesivir mixture; format: physicochemical
Experimental: The preferred solvent systems are characterized by a short settling time (less than 30 sec), a good dissolving ability (more than 20 mg racemic mixture of remdesivir can be dissolved in 1 mL of the solvent system), while from the toxicological aspect, their components can be categorized into class 3 and/or class 4 solvents classes.

[2] = Várnai et al., J. Pharm. Biomed. Anal., 2021; cited from earlier work

Compound | amount that can be dissolved in 1 mL of the solvent system [1] | ionization constant (basic pka) [2]
CCC(CC)COC(=O)[C@H](C)NP(=O)(OC[C@H]1O[C@@](C#N)(c2ccc3c(N)ncnn23)[C@H](O)[C@@H]1O)Oc1ccccc1 (mixture of isomers) [racemic mixture of remdesivir] | more than 20 mg | –
CCC(CC)COC(=O)[C@H](C)N[P@](=O)(OC[C@H]1O[C@@](C#N)(c2ccc3c(N)ncnn23)[C@H](O)[C@@H]1O)Oc1ccccc1 [remdesivir] | – | 3.56
